Data on one compound can be found in publication doi:10.64898/2025.12.09.693205v1 (biorxiv, 2025).

Structures are written as SMILES.

For this assay, the target named is T1, UBE2N (Homo sapiens, UniProt P61088).
T1 sequence (P61088 1-152): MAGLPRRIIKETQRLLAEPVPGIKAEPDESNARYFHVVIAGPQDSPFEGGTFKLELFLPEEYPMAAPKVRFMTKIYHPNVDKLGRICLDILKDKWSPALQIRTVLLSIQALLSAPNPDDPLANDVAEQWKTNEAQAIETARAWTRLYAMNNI
As to the kind of experiment: microscale thermophoresis. It is filed as binding. Particulars: PBS pH 7.4, 0.05% Tween20; labelled protein; MST-on time 9-10 s; n = 3. (In general: MST reads how a fluorescent partner responds to local heating, with and without ligand.)

With `COC(=O)c1cc2c(cn1)[nH]c1ccc(O)cc12` [Variabine B], the Kd (usually a measure of binding affinity in units of concentration) was determined as 35.3 ± 6.3 µM.
